Results on 42 compounds are retold here after US10280149B2, “Therapeutic compounds and uses thereof” (GENENTECH, INC., priority 2015, dated 2019).

The experiment addresses Full length KDM2B (Homo sapiens (Human), UniProt Q8NHM5). Briefly: KDM2B TR-FRET assay for determining inhibitor IC50. The class given is biochemical. Conditions: TR-FRET (HTRF), biotin-H3K36me2 peptide substrate, 2-OG 0.3 μM or 6 μM. The source says:
KDM2B TR-FRET Assay for Determining Inhibitor IC50
The KDM2B TR-FRET Assay described above represents an additional embodiment of the invention.

The term pIC50 denotes −log10 of the IC50, conventionally taken in molar units. Higher therefore signals a low IC50.

pIC50: −log10 of the molar value. Structures can show the parent of a compound that is named as a salt.

Sequence of Full length KDM2B (Q8NHM5 whole entry): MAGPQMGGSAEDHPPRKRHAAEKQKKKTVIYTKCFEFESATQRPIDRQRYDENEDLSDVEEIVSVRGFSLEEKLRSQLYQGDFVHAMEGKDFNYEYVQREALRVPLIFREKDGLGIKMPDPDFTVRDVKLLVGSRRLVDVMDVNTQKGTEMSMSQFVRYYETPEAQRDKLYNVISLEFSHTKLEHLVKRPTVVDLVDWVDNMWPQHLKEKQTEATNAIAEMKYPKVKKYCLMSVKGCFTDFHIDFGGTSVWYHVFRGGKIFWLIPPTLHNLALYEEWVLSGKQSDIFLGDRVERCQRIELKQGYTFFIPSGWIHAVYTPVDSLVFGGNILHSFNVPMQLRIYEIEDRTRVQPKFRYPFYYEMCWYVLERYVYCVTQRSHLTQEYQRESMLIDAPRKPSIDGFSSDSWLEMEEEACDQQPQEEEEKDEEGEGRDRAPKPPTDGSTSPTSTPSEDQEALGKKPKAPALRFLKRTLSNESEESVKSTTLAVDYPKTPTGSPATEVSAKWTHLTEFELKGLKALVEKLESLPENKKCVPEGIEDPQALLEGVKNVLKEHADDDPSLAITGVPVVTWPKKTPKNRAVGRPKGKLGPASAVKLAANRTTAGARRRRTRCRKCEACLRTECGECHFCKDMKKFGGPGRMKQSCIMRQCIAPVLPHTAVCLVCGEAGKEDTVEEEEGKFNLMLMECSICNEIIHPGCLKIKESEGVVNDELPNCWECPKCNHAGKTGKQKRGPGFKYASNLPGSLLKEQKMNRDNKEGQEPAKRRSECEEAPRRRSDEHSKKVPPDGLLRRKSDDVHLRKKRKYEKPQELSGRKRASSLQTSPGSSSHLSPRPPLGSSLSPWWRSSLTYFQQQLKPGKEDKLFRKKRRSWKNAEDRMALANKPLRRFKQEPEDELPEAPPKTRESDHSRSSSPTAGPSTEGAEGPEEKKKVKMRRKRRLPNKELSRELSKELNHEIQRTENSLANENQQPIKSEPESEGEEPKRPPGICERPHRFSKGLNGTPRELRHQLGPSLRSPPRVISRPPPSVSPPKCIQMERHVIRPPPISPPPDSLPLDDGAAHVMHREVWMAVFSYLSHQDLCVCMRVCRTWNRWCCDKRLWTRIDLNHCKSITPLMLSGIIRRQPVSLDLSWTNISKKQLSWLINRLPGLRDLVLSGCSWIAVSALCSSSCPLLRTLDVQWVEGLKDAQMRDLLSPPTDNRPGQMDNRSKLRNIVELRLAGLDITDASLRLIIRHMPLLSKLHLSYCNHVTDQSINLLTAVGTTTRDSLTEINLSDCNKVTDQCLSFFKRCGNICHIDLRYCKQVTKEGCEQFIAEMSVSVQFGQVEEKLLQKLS

On to `COc1ccc2cc(C(=O)C3CN(CC4CC4)CCC3OC)ccc2c1` (single isomer, unassigned) [Example 146a, (1-(cyclopropylmethyl)-4-methoxypiperidin-3-yl)(6-methoxynaphthalen-2-yl)methanone], for which the pIC50 was 6.42. The same measure for `COc1ccc2cc(C(=O)C3CCCN(CC4CC4)C3)ccc2c1` (stereo not drawn) [Example 77, [1-(cyclopropylmethyl)-3-piperidyl]-(6-methoxy-2-naphthyl)methanone]: 6.68; for `CCCN1CCCC(C(=O)c2ccc3c(CC#N)c(OC)ccc3c2)C1` (stereo not drawn) [Example 56, 2-[2-methoxy-6-(1-propylpiperidine-3-carbonyl)-1-naphthyl]acetonitrile]: 6.57.

The compound `NC(=O)c1cc(C(=O)C2CCCN(CC3CC3)C2)cc2ccccc12` (stereo not drawn) [Example 48, 3-[1-(cyclopropylmethyl)piperidine-3-carbonyl]naphthalene-1-carboxamide] had a pIC50 of 6.74. This pIC50 and that of the compound before are within 0.2 log units of each other. Under `CNC(=O)c1cc(C(=O)C2CCCN(C3CCC3)C2)cc2ccccc12` (stereo not drawn) [Example 42, 3-(1-cyclobutylpiperidine-3-carbonyl)-N-methyl-naphthalene-1-carboxamide] stands 6.61; under `O=C(c1ccc2cc(CO)ccc2c1)C1CCCN(C2CCCC2)C1` (stereo not drawn) [Example 154, (1-cyclopentylpiperidin-3-yl)(6-(hydroxymethyl)naphthalen-2-yl)methanone], 6.74. The same measure for `CC[C@H]1CCN(C2CCC2)C[C@H]1C(=O)c1ccc2c(CC#N)c(OC)ccc2c1` (stereo in doubt) [Example 183d, 2-(6-(1-cyclobutyl-4-ethylpiperidine-3-carbonyl)-2-methoxynaphthalen-1-yl)acetonitrile]: 8.82. Under `CCCN1CCCC(C(=O)c2cccc(Cl)c2)C1` (stereo not drawn) [Example 92, (3-chlorophenyl)-(1-propyl-3-piperidyl)methanone] stands 6.14; under `CCC1CCN(C2CCC2)CC1C(=O)c1ccc2cc(OC)ccc2c1` (single isomer, unassigned) [Example 142d, (1-cyclobutyl-4-ethylpiperidin-3-yl)(6-methoxynaphthalen-2-yl)methanone], 8.18; under “(1-(cyclopropylmethyl)-4-methylpiperidin-3-yl)(6-methoxynaphthalen-2-yl)methanone [Example 137a]”, 7.15. In turn, `CCCN1CC[C@@H](C)[C@@H](C(=O)c2ccc3c(CC#N)c(OC)ccc3c2)C1` (stereo in doubt) [Example 181a, 2-(2-methoxy-6-(4-methyl-1-propylpiperidine-3-carbonyl)naphthalen-1-yl)acetonitrile] had a pIC50 of 5.89. The same measure for `CCCN1CCCC(C(=O)c2ccc(C)c(C)c2)C1` (stereo not drawn) [Example 106, (3,4-dimethylphenyl)-(1-propyl-3-piperidyl)methanone]: 6.61; for `O=C(c1ccc(F)c2ccccc12)C1CCCN(CC2CC2)C1` (stereo not drawn) [Example 127, (1-(cyclopropylmethyl)piperidin-3-yl)(4-fluoronaphthalen-1-yl)methanone hydrochloride]: 5.72; for `O=C(c1ccc(Oc2ccccc2)cc1)[C@H]1CCCN(CC2CC2)C1` [Example 31, [(3S)-1-(cyclopropylmethyl)-3-piperidyl]-(4-phenoxyphenyl)methanone]: 6.87.

In turn, `O=C(c1ccccc1Cl)C1CCCN(CC2CC2)C1` (stereo not drawn) [Example 113, (2-chlorophenyl)(1-(cyclopropylmethyl)piperidin-3-yl)methanone] gave a pIC50 of 5.27. Under `COCCN1CCCC(C(=O)c2ccc3cc(OC)ccc3c2)C1` (stereo not drawn) [Example 78, [1-(2-methoxyethyl)-3-piperidyl]-(6-methoxy-2-naphthyl)methanone] stands 5.62; under `CN(C)C(=O)c1ccc2cc(C(=O)C3CCCN(C4CCCC4)C3)ccc2c1` (stereo not drawn) [Example 178], 6.73; under `O=C(c1ccc2c(O)cccc2c1)C1CCCN(CC2CC2)C1` (stereo not drawn) [Example 150, (1-(cyclopropylmethyl)piperidin-3-yl)(5-hydroxynaphthalen-2-yl)methanone], 6.88. Under `CCCN1CCCC(C(=O)c2ccc3cc(OC)ccc3c2)C1` (stereo not drawn) [Example 18, (6-methoxy-2-naphthyl)-(1-propyl-3-piperidyl)methanone] stands 6.79; under `COc1ccc2cc(C(=O)C3CCCN(C4CCC4)C3)ccc2c1` (stereo not drawn) [Example 76, (1-cyclobutyl-3-piperidyl)-(6-methoxy-2-naphthyl)methanone], 6.21; under `COc1ccc2cc(C(=O)[C@@H]3CN(C4CCC4)CC[C@@H]3C(C)C)ccc2c1CC#N` (stereo in doubt) [Example 186a, 2-(6-(1-cyclobutyl-4-isopropylpiperidine-3-carbonyl)-2-methoxynaphthalen-1-yl)acetonitrile], 7.15. The same measure for `O=C(c1ccc(Cl)cc1)[C@@H]1CCCN(CC2CC2)C1` (stereo in doubt) [Example 116a, (4-chlorophenyl)(1-(cyclopropylmethyl)piperidin-3-yl)methanone]: 5.24. `COc1ccc2cc(C(=O)C3CN(C4CCC4)CCC3CC(C)C)ccc2c1` (single isomer, unassigned) [Example 144b, (1-cyclobutyl-4-isobutylpiperidin-3-yl)(6-methoxynaphthalen-2-yl)methanone] had a pIC50 of 6.57. This pIC50 is 1.33 log units higher than that of the compound before.

With `CCCN1CCCC(C(=O)c2ccc(OC(F)(F)F)cc2)C1` (stereo not drawn) [Example 103, (1-propyl-3-piperidyl)-[4-(trifluoromethoxy)phenyl]methanone], the pIC50 was 5.70. Turning to `CCC[C@H]1CCN(C2CCC2)C[C@H]1C(=O)c1ccc2c(CC#N)c(OC)ccc2c1` (stereo in doubt) [Example 184b, 2-(6-(1-cyclobutyl-4-propylpiperidine-3-carbonyl)-2-methoxynaphthalen-1-yl)acetonitrile], the pIC50 was 8.85.

Compound `O=C(c1cnn(-c2ccccc2)c1)C1CCCN(CC2CC2)C1` (stereo not drawn) [Example 124, (1-(cyclopropylmethyl)piperidin-3-yl)(1-phenyl-1H-pyrazol-4-yl)methanone] had a pIC50 of 6.18. For `COc1ccc2cc(C(=O)[C@H]3CCCN(C4CCC4)C3)ccc2c1CC#N` (stereo in doubt) [Example 179a, 2-(6-(1-cyclobutylpiperidine-3-carbonyl)-2-methoxynaphthalen-1-yl)acetonitrile], the negative logarithm of the IC50 (pIC50) was 8.25. The same measure for `CC1CCN(C2CCCC2)CC1C(=O)c1ccc2cc(C#N)ccc2c1` (stereo not drawn) [Example 162a, 6-(1-cyclopentyl-4-methylpiperidine-3-carbonyl)-2-naphthonitrile]: 6.09. Under `O=C(c1cc(F)c2ccccc2c1)C1CCCN(CC2CC2)C1` (stereo not drawn) [Example 26, [1-(cyclopropylmethyl)-3-piperidyl]-(4-fluoro-2-naphthyl)methanone] stands 6.26; under `CCC1CCN(C2CCC2)CC1C(=O)c1ccc2cc(OC)ccc2c1` (single isomer, unassigned) [Example 142c, (1-cyclobutyl-4-ethylpiperidin-3-yl)(6-methoxynaphthalen-2-yl)methanone], 6.68. Under `Cc1ccc2cc(C(=O)C3CCCN(CC4CC4)C3)ccc2n1` (stereo not drawn) [Example 173] stands 6.59; under `COc1ccc2cc(C(=O)[C@@H]3CN(C4CCC4)CC[C@@H]3c3ccccc3)ccc2c1` (single isomer, unassigned) [Example 141a, (1-cyclobutyl-4-phenylpiperidin-3-yl)(6-methoxynaphthalen-2-yl)methanone], 6.00; under `O=C(c1cccc(Oc2ccccc2)c1)[C@@H]1CCCN(CC2CC2)C1` [Example 29, [(3R)-1-(cyclopropylmethyl)-3-piperidyl]-(3-phenoxyphenyl)methanone], 6.83. As to `CCC[C@@H]1CCN(C2CCC2)C[C@@H]1C(=O)c1ccc2c(CC#N)c(OC)ccc2c1` (stereo in doubt) [Example 184a, 2-(6-(1-cyclobutyl-4-propylpiperidine-3-carbonyl)-2-methoxynaphthalen-1-yl)acetonitrile], the pIC50 is 7.11. Compared with the last compound, the pIC50 is 0.28 log units higher.

On to `COc1cccc(C(=O)[C@@H]2CCCN(CC3CC3)C2)c1` (stereo in doubt) [Example 109a, (1-(cyclopropylmethyl)piperidin-3-yl)(3-methoxyphenyl)methanone], for which the pIC50 is 4.85. `O=C(c1ccc2cc(CO)ccc2c1)C1CCCN(CC2CC2)C1` (stereo not drawn) [Example 152, (1-(cyclopropylmethyl)piperidin-3-yl)(6-(hydroxymethyl)naphthalen-2-yl)methanone] had a pIC50 of 6.63. In turn, `COc1ccc2cc(C(=O)C3CCCN(C4CCCC4)C3)ccc2c1CC#N` (stereo not drawn) [Example 54, 2-[6-(1-cyclopentylpiperidine-3-carbonyl)-2-methoxy-1-naphthyl]acetonitrile] had a pIC50 of 7.40. This pIC50 is 0.77 log units higher than that of the compound before. Compound `Cc1c(C#N)ccc2cc(C(=O)C3CCCN(CC4CC4)C3)ccc12` (stereo not drawn) [Example 71, 6-(1-(cyclopropylmethyl)piperidine-3-carbonyl)-1-methyl-2-naphthonitrile] showed a pIC50 of 6.88.

Turning to `COc1ccc2cc(C(=O)[C@H]3CN(C4CCC4)CC[C@H]3CC(C)C)ccc2c1CC#N` (stereo in doubt) [Example 185b, 2-(6-(1-cyclobutyl-4-isobutylpiperidine-3-carbonyl)-2-methoxynaphthalen-1-yl)acetonitrile], the pIC50 is 8.70. Under `O=C(c1cccc2ccccc12)C1CCCN(CC2CC2)C1` (stereo not drawn) [Example 126, (1-(cyclopropylmethyl)piperidin-3-yl)(naphthalen-1-yl)methanone] stands 5.42. The same measure for `COc1ccc2cc(C(=O)C3CCCN(C4CCOC4)C3)ccc2c1` (stereo not drawn) [Example 15, (6-methoxy-2-naphthyl)-(1-tetrahydrofuran-3-yl-3-piperidyl)methanone]: 6.37; for `COc1ccc2cc(C(=O)C3CN(CC4CC4)CCC3c3ccccc3)ccc2c1` (stereo not drawn) [Example 145, (1-(cyclopropylmethyl)-4-phenylpiperidin-3-yl)(6-methoxynaphthalen-2-yl)methanone]: 6.51.
